Experiments:
Assay type in all cases: biochemical
[1] = target: T1, CLK2(h) (Homo sapiens, UniProt P49760); test: radiometric protein kinase assay, CLK2; details: enzyme inhibition, ATP 10 μM
T1 construct: purchased Eurofins, Dundee, Scotland
Protocol: (§1) Enzymatic biochemical activities were evaluated in radiometric protein kinase assays (Eurofins, Dundee, Scotland). Kinases are incubated with buffer, substrate and [γ-^33P]-ATP (specific activity approx. 500 cpm/pmol, concentration as required). The reaction is initiated by the addition of the MgATP mix. After incubation for 40 minutes at room temperature, the reaction is stopped by the addition of 3% phosphoric acid solution. 10 μL of the reaction is then spotted onto a P30 filtermat and washed three times for 5 minutes in 75 mM phosphoric acid and once in methanol prior to drying and scintillation counting.
(§2) All compounds are prepared to 50× final assay concentration in 100% DMSO. Positive control wells contain all components of the reaction with 2% DMSO. Blank wells contain all components of the reaction, with a reference inhibitor replacing the compound of interest. Each kinase is assigned a standard assay concentration of ATP within 20 μM of its apparent KM. Compounds were screened at 1 μM in duplicate or tested at 10 concentrations at half log dilution starting from 10 μM in singlicate. Dose response curves were fitted with four parameter logistic curve to obtain IC50 values. The average coefficient of variation (CV) of the conducted assay is 4.4%.

[2] = target: T2, Src(1-530)(h) (Homo sapiens, UniProt P12931); test: kinase profile, radiometric assay, Src(1-530)
T2 construct: Src(1-530)
T2 sequence (P12931 1-530): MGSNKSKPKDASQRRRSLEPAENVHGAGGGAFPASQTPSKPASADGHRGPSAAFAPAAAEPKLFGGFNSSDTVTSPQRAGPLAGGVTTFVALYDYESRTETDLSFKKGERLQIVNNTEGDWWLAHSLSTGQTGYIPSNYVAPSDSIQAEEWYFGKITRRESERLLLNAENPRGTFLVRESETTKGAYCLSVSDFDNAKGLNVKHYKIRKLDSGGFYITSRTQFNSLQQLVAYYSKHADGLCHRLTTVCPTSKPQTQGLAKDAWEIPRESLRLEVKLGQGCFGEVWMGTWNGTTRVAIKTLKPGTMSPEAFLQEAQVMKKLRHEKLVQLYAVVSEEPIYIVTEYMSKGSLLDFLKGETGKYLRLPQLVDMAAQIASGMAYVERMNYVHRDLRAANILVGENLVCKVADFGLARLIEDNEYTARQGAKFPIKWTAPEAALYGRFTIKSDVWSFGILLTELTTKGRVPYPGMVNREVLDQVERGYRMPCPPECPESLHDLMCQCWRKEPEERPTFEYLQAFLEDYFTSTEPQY
Protocol: as §1, §2

[3] = target: T3, Aurora-A(h) (Homo sapiens, UniProt O14965); test: kinase profile, radiometric assay, Aurora-A
T3 construct: purchased Eurofins, Dundee, Scotland
T3 sequence (O14965 1-403): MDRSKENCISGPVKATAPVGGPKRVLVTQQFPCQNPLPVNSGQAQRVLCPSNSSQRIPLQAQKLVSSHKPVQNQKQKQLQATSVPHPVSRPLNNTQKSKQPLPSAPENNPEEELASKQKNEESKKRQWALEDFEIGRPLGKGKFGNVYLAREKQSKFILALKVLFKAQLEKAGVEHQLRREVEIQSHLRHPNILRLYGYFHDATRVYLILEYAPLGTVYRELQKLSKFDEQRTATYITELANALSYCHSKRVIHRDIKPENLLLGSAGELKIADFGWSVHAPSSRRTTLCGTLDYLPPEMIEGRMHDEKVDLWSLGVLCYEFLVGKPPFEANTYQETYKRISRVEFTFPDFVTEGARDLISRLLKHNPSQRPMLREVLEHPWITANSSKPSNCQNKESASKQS
Protocol: as §1, §2

[4] = target: T4, JAK2(h) (Homo sapiens, UniProt O60674); test: kinase profile, radiometric assay, JAK2
T4 construct: purchased Eurofins, Dundee, Scotland
T4 sequence (O60674 whole entry): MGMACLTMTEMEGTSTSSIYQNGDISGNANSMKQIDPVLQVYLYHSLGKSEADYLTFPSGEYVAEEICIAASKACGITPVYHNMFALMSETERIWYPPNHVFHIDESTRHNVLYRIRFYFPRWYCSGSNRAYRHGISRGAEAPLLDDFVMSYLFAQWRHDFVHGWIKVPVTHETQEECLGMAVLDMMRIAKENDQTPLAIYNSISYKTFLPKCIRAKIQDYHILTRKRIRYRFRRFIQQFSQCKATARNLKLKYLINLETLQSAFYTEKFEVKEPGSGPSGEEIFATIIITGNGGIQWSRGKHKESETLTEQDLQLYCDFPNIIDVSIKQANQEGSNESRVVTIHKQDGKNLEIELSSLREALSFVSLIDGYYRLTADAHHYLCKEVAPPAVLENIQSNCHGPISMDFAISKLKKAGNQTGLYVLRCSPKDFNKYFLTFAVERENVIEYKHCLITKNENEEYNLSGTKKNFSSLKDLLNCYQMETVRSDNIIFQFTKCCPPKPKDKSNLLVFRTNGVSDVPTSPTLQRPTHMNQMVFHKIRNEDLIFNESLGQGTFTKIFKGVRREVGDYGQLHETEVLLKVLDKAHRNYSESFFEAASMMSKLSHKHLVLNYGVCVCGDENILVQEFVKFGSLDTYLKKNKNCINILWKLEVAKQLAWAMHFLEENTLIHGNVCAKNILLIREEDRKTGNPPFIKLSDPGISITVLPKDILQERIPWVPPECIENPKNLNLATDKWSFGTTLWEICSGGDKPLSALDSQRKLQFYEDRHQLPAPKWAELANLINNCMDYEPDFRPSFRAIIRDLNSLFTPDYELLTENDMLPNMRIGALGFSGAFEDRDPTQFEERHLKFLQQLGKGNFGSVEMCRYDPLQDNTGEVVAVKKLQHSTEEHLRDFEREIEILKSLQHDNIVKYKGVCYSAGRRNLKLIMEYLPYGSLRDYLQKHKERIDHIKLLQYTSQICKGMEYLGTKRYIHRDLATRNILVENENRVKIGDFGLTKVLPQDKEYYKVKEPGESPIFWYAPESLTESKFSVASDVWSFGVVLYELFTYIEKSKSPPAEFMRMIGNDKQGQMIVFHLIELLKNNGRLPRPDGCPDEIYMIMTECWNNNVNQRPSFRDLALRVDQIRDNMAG
Protocol: as §1, §2

[5] = target: T5, MEKK2(h) (Homo sapiens, UniProt Q9Y2U5); test: kinase profile, radiometric assay, MEKK2
T5 construct: purchased Eurofins, Dundee, Scotland
T5 sequence (Q9Y2U5 1-619): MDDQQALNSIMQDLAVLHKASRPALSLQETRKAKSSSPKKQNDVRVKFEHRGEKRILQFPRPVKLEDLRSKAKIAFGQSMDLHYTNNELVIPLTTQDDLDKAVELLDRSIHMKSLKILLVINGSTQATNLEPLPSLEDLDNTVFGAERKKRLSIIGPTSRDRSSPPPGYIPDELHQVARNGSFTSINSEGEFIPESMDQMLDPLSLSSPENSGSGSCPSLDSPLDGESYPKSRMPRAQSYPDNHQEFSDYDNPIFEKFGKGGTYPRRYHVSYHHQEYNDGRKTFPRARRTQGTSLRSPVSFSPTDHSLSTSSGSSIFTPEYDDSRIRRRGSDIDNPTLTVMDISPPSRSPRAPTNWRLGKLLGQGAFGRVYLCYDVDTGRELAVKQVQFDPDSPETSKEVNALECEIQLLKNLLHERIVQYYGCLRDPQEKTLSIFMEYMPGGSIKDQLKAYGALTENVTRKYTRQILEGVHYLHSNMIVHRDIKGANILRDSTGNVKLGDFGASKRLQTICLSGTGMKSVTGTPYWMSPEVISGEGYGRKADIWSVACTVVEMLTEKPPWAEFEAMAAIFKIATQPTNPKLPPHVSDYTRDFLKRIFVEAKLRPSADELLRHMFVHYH
Protocol: as §1, §2

[6] = target: T6, KDR(h) (Homo sapiens, UniProt P35968); test: kinase profile, radiometric assay, KDR
T6 construct: purchased Eurofins, Dundee, Scotland
T6 sequence (P35968 20-1356): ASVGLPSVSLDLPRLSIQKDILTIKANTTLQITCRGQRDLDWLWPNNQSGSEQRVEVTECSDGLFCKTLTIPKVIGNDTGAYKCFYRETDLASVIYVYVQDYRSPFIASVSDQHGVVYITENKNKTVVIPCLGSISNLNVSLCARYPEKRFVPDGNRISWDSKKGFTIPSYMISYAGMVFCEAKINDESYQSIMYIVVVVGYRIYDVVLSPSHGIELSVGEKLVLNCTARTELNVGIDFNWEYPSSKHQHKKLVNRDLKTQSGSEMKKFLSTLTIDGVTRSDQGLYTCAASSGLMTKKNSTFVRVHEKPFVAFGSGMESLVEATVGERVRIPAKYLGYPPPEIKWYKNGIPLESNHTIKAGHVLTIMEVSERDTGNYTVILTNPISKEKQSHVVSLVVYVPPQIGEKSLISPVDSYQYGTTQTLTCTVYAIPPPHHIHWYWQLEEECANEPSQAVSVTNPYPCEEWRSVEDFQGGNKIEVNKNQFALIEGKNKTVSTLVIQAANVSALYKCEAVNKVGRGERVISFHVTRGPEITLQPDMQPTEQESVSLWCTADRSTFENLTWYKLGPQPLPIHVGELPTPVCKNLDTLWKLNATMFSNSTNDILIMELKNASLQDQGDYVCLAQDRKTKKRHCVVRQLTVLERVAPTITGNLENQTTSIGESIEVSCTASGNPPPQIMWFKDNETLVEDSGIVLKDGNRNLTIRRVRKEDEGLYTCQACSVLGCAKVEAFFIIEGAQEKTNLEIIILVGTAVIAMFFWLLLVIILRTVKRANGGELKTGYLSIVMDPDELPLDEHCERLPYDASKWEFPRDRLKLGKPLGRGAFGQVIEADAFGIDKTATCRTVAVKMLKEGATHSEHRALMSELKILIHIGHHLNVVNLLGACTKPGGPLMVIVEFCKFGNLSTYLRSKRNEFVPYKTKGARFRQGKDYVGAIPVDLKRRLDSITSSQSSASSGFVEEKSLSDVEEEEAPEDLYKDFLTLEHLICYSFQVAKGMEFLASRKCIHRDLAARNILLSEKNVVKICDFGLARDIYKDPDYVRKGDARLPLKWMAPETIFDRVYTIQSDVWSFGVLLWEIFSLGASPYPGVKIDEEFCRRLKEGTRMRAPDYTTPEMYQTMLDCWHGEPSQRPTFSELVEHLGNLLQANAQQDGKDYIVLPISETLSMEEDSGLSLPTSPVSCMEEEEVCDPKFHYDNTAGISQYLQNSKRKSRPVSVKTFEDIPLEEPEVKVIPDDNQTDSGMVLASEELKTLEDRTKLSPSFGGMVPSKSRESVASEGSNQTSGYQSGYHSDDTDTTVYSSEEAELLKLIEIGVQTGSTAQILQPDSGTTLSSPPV
Protocol: as §1, §2

[7] = target: T7, Fms(h) (Homo sapiens, UniProt P07333); test: kinase profile, radiometric assay, Fms
T7 construct: purchased Eurofins, Dundee, Scotland
T7 sequence (P07333 20-972): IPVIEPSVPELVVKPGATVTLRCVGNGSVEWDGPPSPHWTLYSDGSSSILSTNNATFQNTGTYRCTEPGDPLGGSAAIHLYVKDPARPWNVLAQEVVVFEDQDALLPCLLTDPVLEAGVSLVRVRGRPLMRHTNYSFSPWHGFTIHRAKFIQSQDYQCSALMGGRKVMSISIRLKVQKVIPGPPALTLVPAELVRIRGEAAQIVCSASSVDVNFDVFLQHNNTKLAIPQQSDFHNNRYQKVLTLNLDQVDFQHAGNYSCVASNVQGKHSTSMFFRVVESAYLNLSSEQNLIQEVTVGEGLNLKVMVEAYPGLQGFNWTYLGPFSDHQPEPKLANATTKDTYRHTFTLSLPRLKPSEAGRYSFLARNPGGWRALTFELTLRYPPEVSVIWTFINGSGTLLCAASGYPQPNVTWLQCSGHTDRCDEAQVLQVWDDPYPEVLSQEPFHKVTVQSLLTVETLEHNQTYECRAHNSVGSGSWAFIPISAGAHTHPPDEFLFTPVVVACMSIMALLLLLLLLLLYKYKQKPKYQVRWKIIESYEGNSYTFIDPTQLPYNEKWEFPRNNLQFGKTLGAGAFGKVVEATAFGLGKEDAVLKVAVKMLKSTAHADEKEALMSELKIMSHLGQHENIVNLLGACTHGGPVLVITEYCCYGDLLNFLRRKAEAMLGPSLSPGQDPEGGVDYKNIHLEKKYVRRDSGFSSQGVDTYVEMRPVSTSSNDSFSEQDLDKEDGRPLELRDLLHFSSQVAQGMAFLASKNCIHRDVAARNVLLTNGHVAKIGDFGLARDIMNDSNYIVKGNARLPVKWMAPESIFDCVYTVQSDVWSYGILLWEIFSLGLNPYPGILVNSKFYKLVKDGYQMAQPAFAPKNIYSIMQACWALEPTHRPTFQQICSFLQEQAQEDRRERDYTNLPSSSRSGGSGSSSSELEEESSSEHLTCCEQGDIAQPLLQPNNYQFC
Protocol: as §1, §2

[8] = target: T8, Flt3(h) (Homo sapiens, UniProt P36888); test: kinase profile, radiometric assay, Flt3
T8 construct: purchased Eurofins, Dundee, Scotland
T8 sequence (P36888 27-993): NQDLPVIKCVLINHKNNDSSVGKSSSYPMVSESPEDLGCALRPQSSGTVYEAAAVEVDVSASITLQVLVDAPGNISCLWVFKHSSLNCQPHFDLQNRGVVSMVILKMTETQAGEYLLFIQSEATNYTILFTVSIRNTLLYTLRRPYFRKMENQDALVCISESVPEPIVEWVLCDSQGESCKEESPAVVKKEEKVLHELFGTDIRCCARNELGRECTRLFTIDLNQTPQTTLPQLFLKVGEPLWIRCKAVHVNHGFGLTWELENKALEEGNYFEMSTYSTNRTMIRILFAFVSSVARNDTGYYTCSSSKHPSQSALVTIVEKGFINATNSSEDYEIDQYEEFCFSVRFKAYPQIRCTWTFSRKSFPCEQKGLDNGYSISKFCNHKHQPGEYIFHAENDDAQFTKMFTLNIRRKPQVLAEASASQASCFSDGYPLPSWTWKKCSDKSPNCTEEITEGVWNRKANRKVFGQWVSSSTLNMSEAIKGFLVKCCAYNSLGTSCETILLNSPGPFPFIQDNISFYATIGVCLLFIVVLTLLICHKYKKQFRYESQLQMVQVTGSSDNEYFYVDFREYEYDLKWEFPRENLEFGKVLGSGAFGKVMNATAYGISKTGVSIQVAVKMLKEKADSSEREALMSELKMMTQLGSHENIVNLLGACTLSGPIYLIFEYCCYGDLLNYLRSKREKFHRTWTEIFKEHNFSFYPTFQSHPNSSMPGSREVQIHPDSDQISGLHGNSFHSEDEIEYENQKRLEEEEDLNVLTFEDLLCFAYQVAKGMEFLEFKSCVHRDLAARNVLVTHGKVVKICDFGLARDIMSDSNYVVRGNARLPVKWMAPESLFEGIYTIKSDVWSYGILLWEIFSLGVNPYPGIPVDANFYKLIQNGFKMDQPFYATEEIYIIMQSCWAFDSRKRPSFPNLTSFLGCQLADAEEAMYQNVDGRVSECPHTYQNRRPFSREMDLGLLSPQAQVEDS
Protocol: as §1, §2

[9] = target: T9, Aurora-B(h) (Homo sapiens, UniProt Q96GD4); test: kinase profile, radiometric assay, Aurora-B
T9 construct: purchased Eurofins, Dundee, Scotland
T9 sequence (Q96GD4 whole entry): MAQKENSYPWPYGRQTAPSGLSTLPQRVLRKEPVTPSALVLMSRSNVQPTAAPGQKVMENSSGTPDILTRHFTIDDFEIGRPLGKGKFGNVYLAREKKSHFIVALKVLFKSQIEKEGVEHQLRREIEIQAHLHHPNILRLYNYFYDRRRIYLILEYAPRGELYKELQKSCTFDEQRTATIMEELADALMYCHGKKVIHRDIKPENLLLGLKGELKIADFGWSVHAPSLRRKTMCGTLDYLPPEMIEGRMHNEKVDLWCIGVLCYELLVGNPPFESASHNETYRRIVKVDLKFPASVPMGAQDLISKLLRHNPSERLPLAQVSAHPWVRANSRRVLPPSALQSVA
Protocol: as §1, §2

[10] = target: T10, JNK2α2(h) (Homo sapiens, UniProt P45984); test: kinase profile, radiometric assay, JNK2α2
T10 construct: purchased Eurofins, Dundee, Scotland
T10 sequence (P45984 whole entry): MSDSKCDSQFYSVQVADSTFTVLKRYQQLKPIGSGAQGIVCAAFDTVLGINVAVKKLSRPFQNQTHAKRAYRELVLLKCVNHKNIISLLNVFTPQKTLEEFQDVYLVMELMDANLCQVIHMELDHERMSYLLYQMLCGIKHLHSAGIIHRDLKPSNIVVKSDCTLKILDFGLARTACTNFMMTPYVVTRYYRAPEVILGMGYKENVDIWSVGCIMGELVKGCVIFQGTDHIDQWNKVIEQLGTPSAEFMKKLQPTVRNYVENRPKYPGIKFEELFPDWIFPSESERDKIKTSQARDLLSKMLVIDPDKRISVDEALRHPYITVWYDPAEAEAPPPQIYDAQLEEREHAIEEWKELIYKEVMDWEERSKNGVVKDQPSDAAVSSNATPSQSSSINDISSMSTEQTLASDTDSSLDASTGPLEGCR
Protocol: as §1, §2

Structure (SMILES) | IC50 [1] | inhibition at 1 µM [2] | inhibition at 1 µM [3] | inhibition at 1 µM [4] | inhibition at 1 µM [5] | inhibition at 1 µM [6] | inhibition at 1 µM [7] | inhibition at 1 µM [8] | inhibition at 1 µM [9] | inhibition at 1 µM [10]
CC(C)n1cnc2c(Nc3cc(N)cc(Cl)c3)nc(NC3CCCCC3N)nc21 (racemic) [Compound 14, Racemic N^6-Cis-(3-Amino-5-Chlorophenyl)-N^2-(2-Aminocyclohexyl)-9-Isopropyl-9H-Purine-2,6-Diamine] | 16 nM | 78% | 13% | 8% | 48% | 4% | 9% | 93% | -16% | -6%
CC(C)n1cnc2c(Nc3cccc(Cl)c3)nc(N[C@H]3CCCC[C@@H]3N)nc21 [Compound 8, N^2-((1S,2S)-2-Aminocyclohexyl)-V-(3-Chlorophenyl)-9-Isopropyl-9H-Purine-2,6-Diamine] | 16 nM | 22% | 4% | -6% | 47% | 16% | -1% | 19% | -15% | 1%
CC(C)n1cnc2c(Nc3cccc(Cl)c3)nc(N[C@@H]3CCCC[C@@H]3N)nc21 [Compound 9, N^2-((1R,2S)-2-Aminocyclohexyl)-N^6-(3-Chlorophenyl)-9-Isopropyl-9H-Purine-2,6-Diamine] | 11 nM | 69% | -5% | 2% | 18% | -6% | -16% | 90% | -16% | 4%

Source: US10722515B2, “Dual CLK/CDK1 inhibitors for cancer treatment” (SRI INTERNATIONAL, priority 2016, dated 2020)
